The target in assay [1] is T1, human A2A adenosine receptor (Homo sapiens, UniProt P29274).
T1 construct: expressed in transfected cells; host or cells: HEK293 or CHO cells
Put plainly: A2A binding affinity, Method (A): radioligand filtration binding with [3H]SCH58261. The note with it: membranes of HEK293 or CHO cells expressing the human receptor. The source says: (§1) Method (A) describes the procedure used to measure A2A binding affinity using radioligand binding. Method (B) describes the procedure used to measure A2A binding affinity using SPA technology. The method used to measure A2B binding affinity is also described below. The method used to determine the A2A IC50 value reported for each compound in the table is indicated next to the reported value. The A2B IC50 value measured using the A2B binding affinity assay is shown in the table next to the compound under the corresponding A2A value.
The A2A receptor affinity binding assay measured the amount of binding of a tritiated ligand with high affinity for the A2A adenosine receptor to membranes made from HEK293 or CHO cells recombinantly expressing the human A2A adenosine receptor, in the presence of varying concentrations of a compound of the invention. The data were generated using either filtration binding or a homogenous scintillation proximity assay (SPA).
Method (A): Measurement of A2A Binding Affinity Using Radioligand Binding
148 µL (5 µg/mL) membranes (Perkin Elmer, Cat. No. RBHA2aM400UA) and 2 µL compounds of the invention to be tested (test compound) were transferred to individual wells of a 96-well polypropylene assay plate and incubated for 15 to 30 min at room temperature. [^3H] SCH58261 ((7-(2-phenylethyl)-5-amino-2-(2-furyl)-pyrazolo-[4,3-e]-1,2,4-triazolo[1,5-c]pyrimidine)) was diluted in assay buffer (50 mM Tris pH 7.4, 10 mM MgCl2, 0.005% Tween20) to a concentration of 4 nM and 50 µL transferred to each well of the assay plate. To define total and non-specific binding, wells containing 1% DMSO and 1 µM ZM241385 (Tocris Bioscience, Cat. No. 1036) respectively, were also included. The assay plate was incubated at room temperature for 60 min with agitation. Using a FilterMate Harvester® (Perkin Elmer), the contents of the assay plate were filtered through a UniFilter-96® PEI coated plate (Perkin Elmer Cat. No. 6005274 or 6005277). Filtering was achieved by aspirating the contents of the assay plate for 5 sec, then washing and aspirating the contents three times with ice-cooled wash buffer (50 mM Tris-HCl pH 7.4, 150 mM NaCl) and allowing the vacuum manifold to dry the plate for 30 sec. The filter plate was incubated for at least 1 h at 55° C. and allowed to dry. The bottom of the filter plate was sealed with backing tape. 40 µL Ultima Gold™ (Perkin Elmer, Cat. No. 6013329) was added to each well of the filter plate and the top of the plate was sealed with TopSeal-A PLUS® clear plate seal (Perkin Elmer, Cat. No. 6050185). The plate was incubated for at least 20 min, and then the amount of radioactivity remaining in each well was determined using a TopCount® (Perkin Elmer) scintillation counter. After normalization to total and non-specific binding, the percent effect at each compound concentration was calculated. The plot of percent effect versus the log of compound concentration was analyzed electronically using a 4-parameter logistic fit based on the Levenberg-Marquardt algorithm to generate IC50 values.

For assay [2], the target named is T2, human A2B adenosine receptor (Homo sapiens, UniProt P29275).
T2 construct: purchased Perkin Elmer ES-013-C; host or cells: HEK293 cells
T2 sequence (P29275 1-332): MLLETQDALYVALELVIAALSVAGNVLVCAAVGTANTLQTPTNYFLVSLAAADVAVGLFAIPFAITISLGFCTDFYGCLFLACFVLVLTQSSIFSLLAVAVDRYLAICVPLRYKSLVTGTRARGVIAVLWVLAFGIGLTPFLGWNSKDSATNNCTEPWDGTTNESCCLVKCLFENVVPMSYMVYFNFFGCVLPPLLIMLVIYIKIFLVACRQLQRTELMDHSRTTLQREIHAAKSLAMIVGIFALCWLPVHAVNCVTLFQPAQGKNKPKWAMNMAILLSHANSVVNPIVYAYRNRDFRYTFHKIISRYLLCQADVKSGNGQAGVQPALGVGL
Put plainly: A2B binding affinity, radioligand filtration binding assay. The note with it: membranes of HEK293 cells expressing human A2B.
Text: as §1
Measurement of A2B Binding Affinity
The reported affinity of the compounds of the invention for the human A2B adenosine receptor was determined experimentally using a radioligand filtration binding assay. This assay measures the amount of binding of a tritiated proprietary A2B receptor antagonist, in the presence and absence of a compound of the invention, to membranes made from HEK293 cells recombinantly expressing the human A2B adenosine receptor (Perkin Elmer, Cat. No. ES-013-C). […] 148 µL (135 µg/mL) membranes and 2 µL test compounds were transferred to individual wells of a 96-well polypropylene assay plate and incubated for 15 to 30 min at room temperature with agitation. Tritiated radioligand was diluted to a concentration of 14 nM in assay buffer (phosphate buffered saline without Magnesium and Calcium, pH 7.4; GE Healthcare Life Sciences, Cat. No. SH30256.01) and then 50 µL of the solution were transferred to each well of the assay plate. To define total and non-specific binding, wells containing 1% DMSO and 20 µM N-ethylcarboxamidoadenosine (Tocris Bioscience, Cat. No. 1691) respectively, were also included. The wells of the assay plate were incubated at room temperature for 60 min with agitation, then filtered using a FilterMate Harvester® (Perkin Elmer) or similar equipment through a UniFilter-96® PEI coated plate (Perkin Elmer Cat. No. 6005274 or 6005277). Filtering was achieved by aspirating the contents of the assay plate for 5 sec, then washing and aspirating the contents three times with ice-cooled wash buffer (assay buffer supplemented with 0.0025% Brij58) and allowing the vacuum manifold to dry the plate for 30 sec. The filter plate was incubated for at least 1 h at 55° C. and allowed to dry. The bottom of the filter plate was then sealed with backing tape. 40 µL Ultima Gold™ (Perkin Elmer, Cat. No. 6013329) was added to each well of the filter plate and the top of the plate was sealed with TopSeal-A PLUS® clear plate seal (Perkin Elmer, Cat. No. 6050185). The plates were then incubated for at least 20 min, and then the amount of radioactivity remaining in each well was determined using a TopCount® (Perkin Elmer) scintillation counter. After normalization to total and non-specific binding, the percent effect at each compound concentration was calculated. The plot of percent effect versus the log of compound concentration was analyzed electronically using a 4-parameter logistic fit based on the Levenberg-Marquardt algorithm to generate IC50 values.

From patent publication US20230322785A1, “ADENOSINE A2A AND A2B RECEPTOR DUAL ANTAGONISTS FOR IMMUNO-ONCOLOGY” (Merck Sharp & Dohme LLC, priority 2020, published 2023) come the findings set out here.

T1 sequence (P29274 whole entry): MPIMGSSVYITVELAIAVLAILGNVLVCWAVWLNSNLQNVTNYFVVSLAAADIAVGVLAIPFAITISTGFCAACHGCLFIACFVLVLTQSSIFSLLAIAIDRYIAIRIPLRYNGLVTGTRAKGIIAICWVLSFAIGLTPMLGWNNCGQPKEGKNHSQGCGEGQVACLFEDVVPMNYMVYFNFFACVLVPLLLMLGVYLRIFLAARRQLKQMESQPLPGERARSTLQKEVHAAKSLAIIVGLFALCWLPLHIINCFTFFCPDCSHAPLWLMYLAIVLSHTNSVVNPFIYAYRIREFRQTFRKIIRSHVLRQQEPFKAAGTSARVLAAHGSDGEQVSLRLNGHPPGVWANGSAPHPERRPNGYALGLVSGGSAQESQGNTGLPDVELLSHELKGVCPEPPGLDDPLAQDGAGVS

In the case of `COc1cc(F)cc2c1nc(N)n1nc(CNCc3ccc(C(O)C(F)(F)F)cc3)nc21` (single isomer, unassigned) [Example 11.7A, (S or R)-1-(4-((((5-amino-9-fluoro-7-methoxy-[1,2,4]triazolo[1,5-c]quinazolin-2-yl)methyl)amino)methyl)phenyl)-2,2,2-trifluoroethan-1-ol], the IC50 (as a rule, the point on the concentration scale where inhibition reaches its midpoint) in assay [1] was determined as 0.5 nM; in assay [2] (value given with mark (A)) it was 21.2 nM.
The corresponding values for `COc1cc(F)cc2c1nc(N)n1nc(CNCc3ccc(C(O)C(F)(F)F)cc3)nc21` (single isomer, unassigned) [Example 11.7B, (R or S)-1-(4-((((5-amino-9-fluoro-7-methoxy-[1,2,4]triazolo[1,5-c]quinazolin-2-yl)methyl)amino)methyl)phenyl)-2,2,2-trifluoroethan-1-ol] are 0.5 nM and 14.7 nM.
The corresponding values for `COc1cc(F)cc2c1nc(N)n1nc(CNCc3ccc(C(C)(O)C(F)(F)F)cc3)nc21` (single isomer, unassigned) [Example 11.8A, (S or R)-2-(4-((((5-amino-9-fluoro-7-methoxy-[1,2,4]triazolo[1,5-c]quinazolin-2-yl)methyl)amino)methyl)phenyl)-1,1,1-trifluoropropan-2-ol] are 0.8 nM and 11.3 nM.
As for `COc1cc(F)cc2c1nc(N)n1nc(CNCc3ccc(C(C)(O)C(F)(F)F)cc3)nc21` (single isomer, unassigned) [Example 11.8B, (R or S)-2-(4-((((5-amino-9-fluoro-7-methoxy-[1,2,4]triazolo[1,5-c]quinazolin-2-yl)methyl)amino)methyl)phenyl)-1,1,1-trifluoropropan-2-ol], the IC50 in assay [1] is 0.4 nM; in assay [2] (value given with mark (A)), 2.9 nM.
As for `COc1cccc2c1nc(N)n1nc(CNCc3cnn(C)c3)nc21` [Example 11.3, 7-methoxy-2-((((1-methyl-1H-pyrazol-4-yl)methyl)amino)methyl)-[1,2,4]triazolo[1,5-c]quinazolin-5-amine], the IC50 in assay [1] came to 0.1 nM; in assay [2] (value printed with mark (B)) it was 1040 nM.
The corresponding values for `COc1cc(F)cc2c1nc(N)n1nc(CNCc3ccc(C(C)(C)O)cc3)nc21` [Example 11.4, 2-(4-((((5-amino-9-fluoro-7-methoxy-[1,2,4]triazolo[1,5-c]quinazolin-2-yl)methyl)amino)methyl)phenyl)propan-2-ol] are 0.1 nM and 2.9 nM.
In the case of `COc1cc(F)cc2c1nc(N)n1nc(CNCc3ccc(C(O)(C(F)(F)F)C(F)(F)F)cc3)nc21` [Example 11.5, 2-(4-((((5-amino-9-fluoro-7-methoxy-[1,2,4]triazolo[1,5-c]quinazolin-2-yl)methyl)amino)methyl)phenyl)-1,1,1,3,3,3-hexafluoropropan-2-ol], the IC50 in assay [1] came out at 0.2 nM; in assay [2] (value given with mark (A)), 1 nM.
In the case of `COc1cc(F)cc2c1nc(N)n1nc(CNCc3ccc(C(O)(C(F)F)C(F)F)cc3)nc21` [Example 11.6, 2-(4-((((5-amino-9-fluoro-7-methoxy-[1,2,4]triazolo[1,5-c]quinazolin-2-yl)methyl)amino)methyl)phenyl)-1,1,3,3-tetrafluoropropan-2-ol], the figures for the IC50 in assay [1] and in assay [2] (value given with mark (A)) were 0.3 nM and 3.7 nM, respectively.
In the same order, the values of `COc1cc(F)cc2c1nc(N)n1nc(CNCc3ccc(S(N)(=O)=O)cc3)nc21` [Example 11.11, 4-((((5-amino-9-fluoro-7-methoxy-[1,2,4]triazolo[1,5-c]quinazolin-2-yl)methyl)amino)methyl)benzenesulfonamide] are 2.1 nM and 15.6 nM.
In the same order, the values of `COc1cccc2c1nc(N)n1nc(CNS(=O)(=O)C3CC3)nc21` [Example 12.2, N-((5-amino-7-methoxy-[1,2,4]triazolo[1,5-c]quinazolin-2-yl)methyl)cyclopropanesulfonamide] are 0.6 nM and 116 nM.
